According to ChEMBL document CHEMBL4184318, “Identification of Fast-Acting 2,6-Disubstituted Imidazopyridines That Are Efficacious in the in Vivo Humanized Plasmodium falciparum NODscidIL2Rγ null Mouse Model of Malaria” (J Med Chem, 2018):
In brackets after ≈: the same amount, converted by molar mass.

Assays:
Mus musculus [1] = assay: Dose normalized Cmax in NOD-scid IL-2Rgamma-null mouse model engrafted with Plasmodium falciparum 3D7 infected human erythrocytes at 10 mg/kg administered via oral gavage measured over 23 hrs post first dose by LC-MS/MS method; assay type: ADME, organism-based; details: in vivo
[2] = AUC (0 to 23 hrs) in NOD-scid IL-2Rgamma-null mouse model engrafted with Plasmodium falciparum 3D7 infected human erythrocytes at 5 mg/kg administered via oral gavage by LC-MS/MS method; assay type: ADME, organism-based; design: dose 5 mg/kg, time < 23 hr, route oral; details: in vivo
Mus musculus [3] = assay: Dose normalized Cmax in NOD-scid IL-2Rgamma-null mouse model engrafted with Plasmodium falciparum 3D7 infected human erythrocytes at 25 mg/kg administered via oral gavage measured over 23 hrs post first dose by LC-MS/MS method; assay type: ADME, organism-based; details: in vivo
[4] = Tmax in NOD-scid IL-2Rgamma-null mouse model engrafted with Plasmodium falciparum 3D7 infected human erythrocytes at 5 mg/kg administered via oral gavage measured over 23 hrs post first dose by LC-MS/MS method; assay type: ADME, organism-based; details: in vivo
Mus musculus [5] = assay: Dose normalized Cmax in NOD-scid IL-2Rgamma-null mouse model engrafted with Plasmodium falciparum 3D7 infected human erythrocytes at 50 mg/kg administered via oral gavage measured over 23 hrs post first dose by LC-MS/MS method; assay type: ADME, organism-based; details: in vivo
Mus musculus [6] = assay: Dose normalized AUC (0 to 23 hrs) in NOD-scid IL-2Rgamma-null mouse model engrafted with Plasmodium falciparum 3D7 infected human erythrocytes at 50 mg/kg administered via oral gavage by LC-MS/MS method; assay type: ADME, organism-based; details: in vivo
[7] = AUC (0 to 23 hrs) in NOD-scid IL-2Rgamma-null mouse model engrafted with Plasmodium falciparum 3D7 infected human erythrocytes at 25 mg/kg administered via oral gavage by LC-MS/MS method; assay type: ADME, organism-based; design: time < 23 hr, dose 25 mg/kg, route oral; details: in vivo
[8] = Cmax in Sprague-Dawley rat at 5 mg/kg, iv administered as 2 mins of infusion by LC-MS/MS method; assay type: ADME, organism-based; design: dose 5 mg/kg, route intravenous; details: in vivo
Mus musculus [9] = assay: Dose normalized Cmax in NOD-scid IL-2Rgamma-null mouse model engrafted with Plasmodium falciparum 3D7 infected human erythrocytes at 5 mg/kg administered via oral gavage measured over 23 hrs post first dose by LC-MS/MS method; assay type: ADME, organism-based; details: in vivo
[10] = Kinetic solubility of the compound in phosphate buffered saline at pH 6.5 after 20 hrs by shake flask method; assay type: physicochemical; details: read-out: Kinetic_solubility
[11] = Kinetic solubility of the compound in HCl at pH 2 after 20 hrs by shake flask method; assay type: physicochemical; details: read-out: Kinetic_solubility
[12] = Tmax in NOD-scid IL-2Rgamma-null mouse model engrafted with Plasmodium falciparum 3D7 infected human erythrocytes at 50 mg/kg administered via oral gavage measured over 23 hrs post first dose by LC-MS/MS method; assay type: ADME, organism-based; details: in vivo
[13] = Cmax in NOD-scid IL-2Rgamma-null mouse model engrafted with Plasmodium falciparum 3D7 infected human erythrocytes at 25 mg/kg administered via oral gavage measured over 23 hrs post first dose by LC-MS/MS method; assay type: ADME, organism-based; design: dose 25 mg/kg, route oral; details: in vivo
[14] = Cmax in BALB/c mouse at 10 mg/kg administered via oral gavage as bolus dose by LC-MS/MS method; assay type: ADME, organism-based; design: dose 10 mg/kg, route oral; details: in vivo
Rattus norvegicus [15] = assay: Dose normalized AUC (0 to infinity) in Sprague-Dawley rat at 20 mg/kg administered via oral gavage as bolus dose by LC-MS/MS method; assay type: ADME, organism-based; details: in vivo
Rattus norvegicus [16] = assay: Dose normalized AUC (0 to infinity) in Sprague-Dawley rat at 5 mg/kg, iv administered as 2 mins of infusion by LC-MS/MS method; assay type: ADME, organism-based; details: in vivo
Mus musculus [17] = assay: Dose normalized AUC (0 to 23 hrs) in NOD-scid IL-2Rgamma-null mouse model engrafted with Plasmodium falciparum 3D7 infected human erythrocytes at 25 mg/kg via oral gavage by LC-MS/MS method; assay type: ADME, organism-based; details: in vivo
[18] = Tmax in NOD-scid IL-2Rgamma-null mouse model engrafted with Plasmodium falciparum 3D7 infected human erythrocytes at 25 mg/kg administered via oral gavage measured over 23 hrs post first dose by LC-MS/MS method; assay type: ADME, organism-based; details: in vivo
[19] = AUC (0 to 23 hrs) in NOD-scid IL-2Rgamma-null mouse model engrafted with Plasmodium falciparum 3D7 infected human erythrocytes at 50 mg/kg administered via oral gavage by LC-MS/MS method; assay type: ADME, organism-based; design: dose 50 mg/kg, time < 23 hr, route oral; details: in vivo
[20] = Oral bioavailability in Sprague-Dawley rat at 20 mg/kg administered via gavage as bolus dose by LC-MS/MS method; assay type: ADME, organism-based; details: in vivo
Mus musculus [21] = assay: Dose normalized AUC (0 to 23 hrs) in NOD-scid IL-2Rgamma-null mouse model engrafted with Plasmodium falciparum 3D7 infected human erythrocytes at 10 mg/kg administered via oral gavage by LC-MS/MS method; assay type: ADME, organism-based; details: in vivo
[22] = Drug metabolism in iv or po dosed Sprague-Dawley rat plasma assessed as oxidation of pyridine ring by LC-MS/MS method; assay type: ADME, organism-based; details: in vivo
[23] = Tmax in Sprague-Dawley rat at 20 mg/kg administered via oral gavage as bolus dose by LC-MS/MS method; assay type: ADME, organism-based; details: in vivo
[24] = AUC (0 to 23 hrs) in NOD-scid IL-2Rgamma-null mouse model engrafted with Plasmodium falciparum 3D7 infected human erythrocytes at 10 mg/kg administered via oral gavage by LC-MS/MS method; assay type: ADME, organism-based; design: dose 10 mg/kg, time < 23 hr, route oral; details: in vivo
[25] = Volume of distribution in Sprague-Dawley rat at 5 mg/kg, iv administered as 2 mins of infusion by LC-MS/MS method; assay type: ADME, organism-based; details: in vivo
[26] = Cmax in Sprague-Dawley rat at 20 mg/kg administered via oral gavage as bolus dose by LC-MS/MS method; assay type: ADME, organism-based; design: dose 20 mg/kg, route oral; details: in vivo
[27] = Cmax in NOD-scid IL-2Rgamma-null mouse model engrafted with Plasmodium falciparum 3D7 infected human erythrocytes at 50 mg/kg administered via oral gavage measured over 23 hrs post first dose by LC-MS/MS method; assay type: ADME, organism-based; design: dose 50 mg/kg, route oral; details: in vivo
[28] = Kinetic solubility of the compound in FaSSIF at pH 6.5 after 20 hrs by shake flask method; assay type: physicochemical; details: read-out: Kinetic_solubility
Mus musculus [29] = assay: Dose normalized AUC (0 to infinity) in BALB/c mouse at 10 mg/kg administered via oral gavage as bolus dose by LC-MS/MS method; assay type: ADME, organism-based; details: in vivo
[30] = Cmax in NOD-scid IL-2Rgamma-null mouse model engrafted with Plasmodium falciparum 3D7 infected human erythrocytes at 10 mg/kg administered via oral gavage measured over 23 hrs post first dose by LC-MS/MS method; assay type: ADME, organism-based; design: dose 10 mg/kg, route oral; details: in vivo
Mus musculus [31] = assay: Dose normalized AUC (0 to 23 hrs) in NOD-scid IL-2Rgamma-null mouse model engrafted with Plasmodium falciparum 3D7 infected human erythrocytes at 5 mg/kg administered via oral gavage by LC-MS/MS method; assay type: ADME, organism-based; details: in vivo
[32] = Tmax in BALB/c mouse at 10 mg/kg administered via oral gavage as bolus dose by LC-MS/MS method; assay type: ADME, organism-based; details: in vivo
[33] = Cmax in NOD-scid IL-2Rgamma-null mouse model engrafted with Plasmodium falciparum 3D7 infected human erythrocytes at 5 mg/kg administered via oral gavage measured over 23 hrs post first dose by LC-MS/MS method; assay type: ADME, organism-based; design: dose 5 mg/kg, route oral; details: in vivo
[34] = Tmax in NOD-scid IL-2Rgamma-null mouse model engrafted with Plasmodium falciparum 3D7 infected human erythrocytes at 10 mg/kg administered via oral gavage measured over 23 hrs post first dose by LC-MS/MS method; assay type: ADME, organism-based; details: in vivo
[35] = Drug metabolism in iv or po dosed Sprague-Dawley rat plasma assessed as oxidation of phenyl ring by LC-MS/MS method; assay type: ADME, organism-based; details: in vivo

Cmax/dose (Mus musculus [1]): 0.158 µg/mL/mg/kg
AUC(0-t) at 23 h [2]: 6510 ng·h/mL
Cmax/dose (Mus musculus [3]): 0.155 µg/mL/mg/kg
Tmax [4]: 4 to 6 h
Cmax/dose (Mus musculus [5]): 0.097 µg/mL/mg/kg
AUC/dose (Mus musculus [6]): 1.681 µg·h/mL/mg/kg
AUC(0-t) at 23 h [7]: 32600 ng·h/mL
Cmax [8]: 5.4 µM
Cmax/dose (Mus musculus [9]): 0.115 µg/mL/mg/kg
solubility kinetic at 20 h [10]: < 5 µM
solubility kinetic at 20 h [11]: 13 µM (≈ 5.09 µg/mL)
Tmax [12]: 2 to 4 h
Cmax [13]: 3090 ng/mL
Cmax [14]: 4 µM
AUC/dose (Rattus norvegicus [15]): 5923 µM·min
AUC/dose (Rattus norvegicus [16]): 1692 µM·min
AUC/dose (Mus musculus [17]): 1.632 µg·h/mL/mg/kg
Tmax [18]: 4 h
AUC(0-t) at 23 h [19]: 84100 ng·h/mL
bioavailability [20]: 88%
AUC/dose (Mus musculus [21]): 1.686 µg·h/mL/mg/kg
Drug metabolism [22]: Metabolite_Detected
Tmax [23]: 12 h
AUC(0-t) at 23 h [24]: 16900 ng·h/mL
Vd [25]: 2.3 L/kg
Cmax [26]: 4.7 µM
Cmax [27]: 4860 ng/mL
solubility kinetic at 20 h [28]: 50 to 100 µM (≈ 19.6 to 39.1 µg/mL)
AUC/dose (Mus musculus [29]): 2622 µM·min
Cmax [30]: 1580 ng/mL
AUC/dose (Mus musculus [31]): 1.302 µg·h/mL/mg/kg
Tmax [32]: 1.7 h
Cmax [33]: 573 ng/mL
Tmax [34]: 4 h
Drug metabolism [35]: Metabolite_Notdetected
SMILES: Fc1ccc(Nc2cc3[nH]c(-c4ccc(F)c(C(F)(F)F)c4)nc3cn2)nc1
